According to PubChem BioAssay AID720615 (Broad Institute, 2013):
Results filed as inconclusive are left out. Active and inactive are the calls of the source. No rule for the calls is given here.

Key:
[1] = caspase 3/7 activation in U251 cells, mechanism study for HRAS target identification, cell-based, luminescence, several timepoints, dry powder (AID 720615); conditions: U251 HRAS cells, caspase 3/7 luminescence, apoptosis; at 35 µM (top of the series)
[2] = tested on: U251 HRAS cells, caspase 3/7 luminescence, apoptosis; assay: as above

Structure (SMILES)	caspase 3/7 activation [1]	AC40 [2] [µM]	AC40 ([2]; measured here: timepoint 1 caspase activation) [µM]	AC40 ([2]; measured here: timepoint 2 caspase activation) [µM]	AC40 ([2]; measured here: timepoint 3 caspase activation) [µM]
CCC(=O)N(c1ccc(OC)c(Cl)c1)C(C(=O)NCCc1ccccc1)c1cccs1 (stereo not given)	4.74% (inactive)				
COc1ccc(N(C(=O)CCl)C(C(=O)NCCc2ccccc2)c2cccs2)cc1Cl (stereo not given)		5.7	14.7	1.45	0.948
